Tests used:
human CYP11B1 = biological target: T1, human CYP11B1 (Homo sapiens, UniProt P15538); experiment: G-402 cellular enzyme assay, human CYP11B1 (cortisol release, HTRF); format: cell-based; details: G-402 cells, 1 μM Deoxycortisol
T1 construct: expressed in transfected cells
T1 sequence (P15538 25-503): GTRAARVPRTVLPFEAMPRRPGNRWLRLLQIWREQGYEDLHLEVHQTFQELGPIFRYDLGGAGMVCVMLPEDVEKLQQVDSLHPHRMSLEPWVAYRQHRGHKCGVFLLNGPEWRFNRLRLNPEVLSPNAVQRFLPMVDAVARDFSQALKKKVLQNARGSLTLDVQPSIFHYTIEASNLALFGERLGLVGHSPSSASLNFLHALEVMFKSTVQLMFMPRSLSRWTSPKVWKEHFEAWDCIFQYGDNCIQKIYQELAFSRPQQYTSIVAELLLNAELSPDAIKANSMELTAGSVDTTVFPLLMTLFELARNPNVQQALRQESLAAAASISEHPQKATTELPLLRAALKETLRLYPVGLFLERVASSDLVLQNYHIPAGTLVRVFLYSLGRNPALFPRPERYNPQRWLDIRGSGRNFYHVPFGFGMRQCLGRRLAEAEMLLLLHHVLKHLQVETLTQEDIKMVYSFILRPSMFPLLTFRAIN
Procedure, shortened: (§1)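 Cellular format in stably transfected G-402 cells over 16 h. HTRF quantified aldosterone (CYP11B2, 1 μM deoxycorticosterone substrate) or cortisol (CYP11B1, 1 μM deoxycortisol substrate); EC50 obtained by fitting a 4-parameter sigmoid to dose–response data.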

human CYP11B2 = biological target: T2, human CYP11B2 (Homo sapiens, UniProt P19099); experiment: G-402 cellular enzyme assay, human CYP11B2 (aldosterone release, HTRF); format: cell-based; details: G-402 cells, 1 μM Deoxycorticosterone
T2 construct: expressed in transfected cells
T2 sequence (P19099 25-503): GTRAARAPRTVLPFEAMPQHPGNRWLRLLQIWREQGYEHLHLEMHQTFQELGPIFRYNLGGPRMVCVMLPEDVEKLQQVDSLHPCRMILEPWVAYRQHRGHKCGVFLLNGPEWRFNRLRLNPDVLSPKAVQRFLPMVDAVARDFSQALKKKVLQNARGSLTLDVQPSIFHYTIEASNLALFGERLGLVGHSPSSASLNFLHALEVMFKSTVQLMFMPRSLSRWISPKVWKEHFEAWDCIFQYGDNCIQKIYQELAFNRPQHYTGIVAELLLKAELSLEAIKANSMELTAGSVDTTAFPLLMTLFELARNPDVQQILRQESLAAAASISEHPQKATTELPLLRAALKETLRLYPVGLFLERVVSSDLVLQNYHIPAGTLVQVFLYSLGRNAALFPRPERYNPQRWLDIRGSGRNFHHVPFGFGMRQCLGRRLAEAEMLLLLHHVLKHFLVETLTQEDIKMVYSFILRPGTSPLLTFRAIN
Procedure, shortened: as §1

SMILES | EC50 (human CYP11B1) | EC50 (human CYP11B2)
CC1(C)c2cc(Cl)ccc2C(=O)N1c1cncc(OC(F)F)c1 [Example 131, 5-Chloro-2-(5-difluoromethoxy-pyridin-3-yl)-3,3-dimethyl-2,3-dihydro-isoindol-1-one] | 264 nM | 11.9 nM
Cn1ncc(Cl)c1-c1cncc(N2C(=O)c3ccc(Cl)cc3C2(C)C)c1 [Example 427, 5-Chloro-2-[5-(4-chloro-2-methyl-2H-pyrazol-3-yl)-pyridin-3-yl]-3,3-dimethyl-2,3-dihydro-isoindol-1-one] | 47.2 nM | 2.4 nM
CCC1c2ccc(Cl)cc2C(=O)N1c1cncc(F)c1 (single isomer, unassigned) [Example 307, (S or R)-6-Chloro-3-ethyl-2-(5-fluoro-pyridin-3-yl)-2,3-dihydro-isoindol-1-one] | 15400 nM | 389 nM
CC1(C)c2cc(Cl)ccc2C(=O)N1c1cncc(CN2CCCCC2=O)c1 [Example 410, 5-Chloro-3,3-dimethyl-2-[5-(2-oxo-piperidin-1-ylmethyl)-pyridin-3-yl]-2,3-dihydro-isoindol-1-one] | 1730 nM | 16.5 nM
O=C1c2ccc(Cl)cc2C(C2CC2)N1c1cncc(F)c1 (stereo not shown) [Example 297, 5-Chloro-3-cyclopropyl-2-(5-fluoro-pyridin-3-yl)-2,3-dihydro-isoindol-1-one] | 12800 nM | 207 nM
CCCc1nccn1Cc1cncc(N2CCc3cc(Cl)ccc3C2=O)c1 [Example 161, 6-Chloro-2-[5-(2-propyl-imidazol-1-ylmethyl)-pyridin-3-yl]-3,4-dihydro-2H-isoquinolin-1-one] | 341 nM | 101 nM
Cn1ccnc1C(=O)c1cncc(N2CCc3cc(Cl)ccc3C2=O)c1 [Example 267, 6-Chloro-2-[5-(1-methyl-4H-imidazole-2-carbonyl)-pyridin-3-yl]-3,4-dihydro-2H-isoquinolin-1-one] | 11300 nM | 1610 nM
COC(c1ccncc1N1CCc2cc(Cl)ccc2C1=O)C1CC1 (stereo not shown) [Example 78, 6-Chloro-2-[4-(cyclopropyl-methoxy-methyl)-pyridin-3-yl]-3,4-dihydro-2H-isoquinolin-1-one] | 1450 nM | 761 nM
O=C1c2ccc(Cl)cc2CCN1c1cncc(-c2cccc(Cl)c2)c1 [Example 234, 6-Chloro-2-[5-(3-chloro-phenyl)-pyridin-3-yl]-3,4-dihydro-2H-isoquinolin-1-one] | 1580 nM | 44.5 nM
CCC(=O)N[C@H]1CCCc2c1cncc2N1C(=O)c2ccc(Cl)cc2[C@H]1CC (single isomer, unassigned) [Example 352, N-[(S or R)-4-((R or S)-5-Chloro-3-ethyl-1-oxo-1,3-dihydro-isoindol-2-yl)-5,6,7,8-tetrahydro-isoquinolin-8-yl]-propionamide] | 39400 nM | 96.5 nM
CC(C)c1nccn1Cc1cncc(N2C(=O)c3ccc(Cl)cc3CC2C)c1 (stereo not shown) [Example 87, 6-Chloro-2-[5-(2-isopropyl-imidazol-1-ylmethyl)-pyridin-3-yl]-3-methyl-3,4-dihydro-2H-isoquinolin-1-one] | 9370 nM | 251 nM
CCC(=O)N1CCCC(c2cncc(N3C(=O)c4ccc(Cl)cc4C3(C)C)n2)C1 (stereo not shown) [Example 463, 5-Chloro-3,3-dimethyl-2-[6-(1-propionyl-piperidin-3-yl)-pyrazin-2-yl]-2,3-dihydro-isoindol-1-one] | 932 nM | 47.1 nM
CCS(=O)(=O)N1CC(Oc2cncc(N3C(=O)c4ccc(Cl)cc4C3(C)C)c2)C1 [Example 453, 5-Chloro-2-[5-(1-ethanesulfonyl-azetidin-3-yloxy)-pyridin-3-yl]-3,3-dimethyl-2,3-dihydro-isoindol-1-one] | 876 nM | 5.1 nM
O=C1c2ccc(Cl)cc2CCN1c1cncc(OC2CC2)c1 [Example 68, 6-Chloro-2-(5-cyclopropoxy-pyridin-3-yl)-3,4-dihydro-2H-isoquinolin-1-one] | 157 nM | 6.7 nM
O=C1c2ccc(Cl)cc2CCN1c1cncc(CNc2cccc(F)c2)c1 [Example 259, 6-Chloro-2-{5-[(3-fluoro-phenylamino)-methyl]-pyridin-3-yl}-3,4-dihydro-2H-isoquinolin-1-one] | 73.8 nM | 12.2 nM
O=C1c2ccc(Cl)cc2CCN1c1cncc(Cc2cc(F)cc(F)c2)c1 [Example 211, 6-Chloro-2-[5-(3,5-difluoro-benzyl)-pyridin-3-yl]-3,4-dihydro-2H-isoquinolin-1-one] | 53.2 nM | 4.4 nM
Cc1nccn1Cc1cncc(N2C(=O)c3ccc(Cl)cc3C2(C)C)c1 [Example 134, 5-Chloro-3,3-dimethyl-2-[5-(2-methyl-imidazol-1-ylmethyl)-pyridin-3-yl]-2,3-dihydro-isoindol-1-one] | 424 nM | 18.6 nM
NC(=O)COc1cncc(N2CCc3cc(Cl)ccc3C2=O)c1 [Example 253, 2-[5-(6-Chloro-1-oxo-3,4-dihydro-1H-isoquinolin-2-yl)-pyridin-3-yloxy]-acetamide] | 10000 nM | 581 nM
COc1cncc(N2C(=O)c3ccc(Cl)cc3C2C)c1 (stereo not shown) [Example 120, 5-Chloro-2-(5-methoxy-pyridin-3-yl)-3-methyl-2,3-dihydro-isoindol-1-one] | 207 nM | 24.7 nM
CCC(=O)NC1CCCc2c1cncc2N1CCc2cc(Cl)ccc2C1=O (single isomer, unassigned) [Example 328, N-((R or S)-6-Chloro-1-oxo-3,4,5′,6′,7′,8′-hexahydro-1H-[2,4′]biisoquinolinyl-8′-yl)-propionamide] | 18400 nM | 173 nM
CCC(=O)NCc1cncc(N2C(=O)c3ccc(Cl)cc3C2CC)c1 (single isomer, unassigned) [Example 399, N-[5-((S or R)-5-Chloro-3-ethyl-1-oxo-1,3-dihydro-isoindol-2-yl)-pyridin-3-ylmethyl]-propionamide] | 11300 nM | 313 nM
Cc1nccn1Cc1cncc(N2CCc3cc(Cl)ccc3C2=O)c1 [Example 142, 6-Chloro-2-[5-(2-methyl-imidazol-1-ylmethyl)-pyridin-3-yl]-3,4-dihydro-2H-isoquinolin-1-one] | 981 nM | 80.2 nM
CCC(=O)NC1CCCc2c1cncc2N1C(=O)c2ccc(Cl)cc2C1(C)C (racemic) [Example 468, N-[4-(6-Chloro-1,1-dimethyl-3-oxo-1,3-dihydro-isoindol-2-yl)-5,6,7,8-tetrahydro-isoquinolin-8-yl]-propionamide] | 2660 nM | 52.8 nM
O=C1c2ccc(Cl)cc2C(C2CC2)N1c1cccnc1 (stereo not shown) [Example 301, 5-Chloro-3-cyclopropyl-2-pyridin-3-yl-2,3-dihydro-isoindol-1-one] | 32500 nM | 161 nM
CC1(C)c2nc(Cl)ccc2C(=O)N1c1cncc(CNc2cc[nH]n2)c1 [Example 383, 2-Chloro-7,7-dimethyl-6-{5-[(1H-pyrazol-3-ylamino)-methyl]-pyridin-3-yl}-6,7-dihydro-pyrrolo[3,4-b]pyridin-5-one] | 771 nM | 21 nM
CCc1nccn1Cc1cncc(N2CCc3cc(Cl)ccc3C2=O)c1 [Example 191, 6-Chloro-2-[5-(2-ethyl-imidazol-1-ylmethyl)-pyridin-3-yl]-3,4-dihydro-2H-isoquinolin-1-one] | 8550 nM | 394 nM
